Results as given in the kinase profiling compilation of Christmann-Franck et al. (2016).
Values joined by “and” are separate entries in the source; they are usually repeats but may differ in a detail not shown here. Equal values may be shown once.

How the values were obtained:
Assay in all cases: KINOMEscan competition binding
Conditions in all cases: compound 1.0 µM
[1] = biological target: EPHB4 (human) (UniProt P54760)
[2] = biological target: PRKCH (human) (UniProt P24723)
[3] = biological target: RPS6KA3 KD2 (human) (UniProt P51812)
[4] = biological target: PIK3CA (human) (UniProt P42336)
[5] = biological target: FGR (human) (UniProt P09769)
[6] = biological target: BRSK1 (human) (UniProt Q8TDC3)
[7] = biological target: CaMK1 (human) (UniProt Q14012)
[8] = system: PIK3CA (human), P42336 [I800L]
[9] = biological target: PTK2B (human) (UniProt Q14289)
[10] = biological target: GSG2 (human) (UniProt Q8TF76)
[11] = biological target: MAP3K11 (human) (UniProt Q16584)
[12] = biological target: DCLK1 (human) (UniProt O15075)
[13] = biological target: DYRK2 (human) (UniProt Q92630)
[14] = biological target: SRPK3 (human) (UniProt Q9UPE1)
[15] = biological target: MAPK11 (human) (UniProt Q15759)
[16] = biological target: GRK1 (human) (UniProt Q15835)
[17] = biological target: IRAK1 (human) (UniProt P51617)
[18] = biological target: MKNK2 (human) (UniProt Q9HBH9)
[19] = biological target: TESK1 (human) (UniProt Q15569)
[20] = biological target: STK10 (human) (UniProt O94804)
[21] = biological target: FLT3 (human) (UniProt P36888)
[22] = biological target: RPS6KB1 (human) (UniProt P23443)
[23] = system: ABL1 (human), P00519 [Y253F]
[24] = biological target: EPHA8 (human) (UniProt P29322)
[25] = system: KIT (human), P10721 [D816H]
[26] = biological target: PIK3C2G (human) (UniProt O75747)
[27] = biological target: MAP2K5 (human) (UniProt Q13163)
[28] = biological target: SRPK2 (human) (UniProt P78362)
[29] = biological target: EPHB1 (human) (UniProt P54762)
[30] = biological target: CRK2 (P.falciparum) (UniProt P61075)
[31] = biological target: PI4KB (human) (UniProt Q9UBF8)
[32] = biological target: PAK2 (human) (UniProt Q13177)
[33] = biological target: RIPK2 (human) (UniProt O43353)
[34] = biological target: AKT2 (human) (UniProt P31751)
[35] = biological target: NEK6 (human) (UniProt Q9HC98)
[36] = biological target: ICK (human) (UniProt Q9UPZ9)
[37] = biological target: FGFR4 (human) (UniProt P22455)
[38] = biological target: PTK2 (human) (UniProt Q05397)
[39] = system: CPK1 (P.falciparum)

Chain of FLT3 (human) (P36888 whole entry, looked up): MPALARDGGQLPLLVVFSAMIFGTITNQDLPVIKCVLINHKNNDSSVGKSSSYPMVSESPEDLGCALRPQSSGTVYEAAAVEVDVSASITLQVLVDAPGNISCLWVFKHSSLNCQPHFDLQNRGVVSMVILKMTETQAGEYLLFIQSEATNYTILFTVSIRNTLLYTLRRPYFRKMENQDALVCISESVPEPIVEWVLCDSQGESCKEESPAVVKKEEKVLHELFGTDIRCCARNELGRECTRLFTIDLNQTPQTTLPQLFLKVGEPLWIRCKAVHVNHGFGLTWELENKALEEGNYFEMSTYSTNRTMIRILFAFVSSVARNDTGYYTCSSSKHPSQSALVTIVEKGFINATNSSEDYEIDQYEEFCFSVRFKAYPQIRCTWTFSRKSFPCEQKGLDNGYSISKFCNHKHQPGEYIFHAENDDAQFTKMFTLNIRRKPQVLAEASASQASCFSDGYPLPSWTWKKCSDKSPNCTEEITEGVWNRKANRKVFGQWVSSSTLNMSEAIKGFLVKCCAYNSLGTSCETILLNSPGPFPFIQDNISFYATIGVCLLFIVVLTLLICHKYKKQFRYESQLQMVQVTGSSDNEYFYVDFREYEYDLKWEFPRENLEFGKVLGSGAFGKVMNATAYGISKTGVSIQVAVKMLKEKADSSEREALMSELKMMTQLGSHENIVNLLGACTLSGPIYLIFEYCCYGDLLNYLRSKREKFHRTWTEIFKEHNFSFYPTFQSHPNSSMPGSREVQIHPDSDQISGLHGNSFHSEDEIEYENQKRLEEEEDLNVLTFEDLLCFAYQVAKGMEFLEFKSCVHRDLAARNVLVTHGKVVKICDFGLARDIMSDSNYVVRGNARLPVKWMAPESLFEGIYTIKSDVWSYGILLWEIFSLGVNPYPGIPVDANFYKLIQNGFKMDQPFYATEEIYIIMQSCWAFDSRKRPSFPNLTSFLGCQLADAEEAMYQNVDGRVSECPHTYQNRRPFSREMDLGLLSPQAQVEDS
Chain of FGR (human) (P09769 whole entry, looked up): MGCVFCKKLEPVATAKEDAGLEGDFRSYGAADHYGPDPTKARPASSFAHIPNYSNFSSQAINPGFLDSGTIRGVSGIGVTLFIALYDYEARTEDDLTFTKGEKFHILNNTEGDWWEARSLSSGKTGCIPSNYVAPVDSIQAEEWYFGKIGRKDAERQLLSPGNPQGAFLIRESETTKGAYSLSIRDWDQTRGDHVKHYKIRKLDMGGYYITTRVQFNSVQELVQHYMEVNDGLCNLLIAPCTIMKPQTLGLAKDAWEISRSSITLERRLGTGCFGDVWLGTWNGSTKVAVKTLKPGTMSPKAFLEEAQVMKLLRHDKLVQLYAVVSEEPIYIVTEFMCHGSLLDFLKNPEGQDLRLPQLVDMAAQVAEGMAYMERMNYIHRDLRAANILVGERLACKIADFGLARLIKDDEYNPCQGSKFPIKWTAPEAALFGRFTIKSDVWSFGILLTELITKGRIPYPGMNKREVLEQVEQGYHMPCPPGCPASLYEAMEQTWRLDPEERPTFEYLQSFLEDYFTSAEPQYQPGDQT
Chain of DYRK2 (human) (Q92630 whole entry, looked up): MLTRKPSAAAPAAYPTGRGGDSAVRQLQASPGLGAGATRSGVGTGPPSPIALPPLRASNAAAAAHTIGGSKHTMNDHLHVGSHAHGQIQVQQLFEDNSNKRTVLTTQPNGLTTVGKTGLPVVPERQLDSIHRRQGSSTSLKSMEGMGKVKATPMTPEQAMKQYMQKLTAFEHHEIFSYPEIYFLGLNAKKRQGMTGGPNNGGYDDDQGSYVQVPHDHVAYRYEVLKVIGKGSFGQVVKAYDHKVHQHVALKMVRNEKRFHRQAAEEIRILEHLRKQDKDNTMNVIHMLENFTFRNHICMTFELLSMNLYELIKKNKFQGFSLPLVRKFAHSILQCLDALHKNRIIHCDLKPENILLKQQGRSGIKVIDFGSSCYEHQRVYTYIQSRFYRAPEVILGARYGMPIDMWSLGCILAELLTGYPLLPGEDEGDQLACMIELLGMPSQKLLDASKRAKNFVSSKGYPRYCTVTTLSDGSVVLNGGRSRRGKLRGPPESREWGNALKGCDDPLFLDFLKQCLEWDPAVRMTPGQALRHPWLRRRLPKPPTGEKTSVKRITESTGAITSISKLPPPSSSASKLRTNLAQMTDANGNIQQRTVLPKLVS
Chain of MAPK11 (human) (Q15759 whole entry, looked up): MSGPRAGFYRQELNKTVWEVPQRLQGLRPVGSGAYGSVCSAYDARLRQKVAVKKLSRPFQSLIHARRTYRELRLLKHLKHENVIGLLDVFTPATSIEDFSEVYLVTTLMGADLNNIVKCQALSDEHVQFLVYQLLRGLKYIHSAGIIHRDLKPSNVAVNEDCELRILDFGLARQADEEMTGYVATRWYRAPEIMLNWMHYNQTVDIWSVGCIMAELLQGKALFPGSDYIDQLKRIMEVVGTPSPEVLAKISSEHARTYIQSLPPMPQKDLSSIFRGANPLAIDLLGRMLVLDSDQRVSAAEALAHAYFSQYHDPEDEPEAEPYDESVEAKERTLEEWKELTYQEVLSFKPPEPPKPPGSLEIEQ
Chain of EPHB1 (human) (P54762 whole entry, looked up): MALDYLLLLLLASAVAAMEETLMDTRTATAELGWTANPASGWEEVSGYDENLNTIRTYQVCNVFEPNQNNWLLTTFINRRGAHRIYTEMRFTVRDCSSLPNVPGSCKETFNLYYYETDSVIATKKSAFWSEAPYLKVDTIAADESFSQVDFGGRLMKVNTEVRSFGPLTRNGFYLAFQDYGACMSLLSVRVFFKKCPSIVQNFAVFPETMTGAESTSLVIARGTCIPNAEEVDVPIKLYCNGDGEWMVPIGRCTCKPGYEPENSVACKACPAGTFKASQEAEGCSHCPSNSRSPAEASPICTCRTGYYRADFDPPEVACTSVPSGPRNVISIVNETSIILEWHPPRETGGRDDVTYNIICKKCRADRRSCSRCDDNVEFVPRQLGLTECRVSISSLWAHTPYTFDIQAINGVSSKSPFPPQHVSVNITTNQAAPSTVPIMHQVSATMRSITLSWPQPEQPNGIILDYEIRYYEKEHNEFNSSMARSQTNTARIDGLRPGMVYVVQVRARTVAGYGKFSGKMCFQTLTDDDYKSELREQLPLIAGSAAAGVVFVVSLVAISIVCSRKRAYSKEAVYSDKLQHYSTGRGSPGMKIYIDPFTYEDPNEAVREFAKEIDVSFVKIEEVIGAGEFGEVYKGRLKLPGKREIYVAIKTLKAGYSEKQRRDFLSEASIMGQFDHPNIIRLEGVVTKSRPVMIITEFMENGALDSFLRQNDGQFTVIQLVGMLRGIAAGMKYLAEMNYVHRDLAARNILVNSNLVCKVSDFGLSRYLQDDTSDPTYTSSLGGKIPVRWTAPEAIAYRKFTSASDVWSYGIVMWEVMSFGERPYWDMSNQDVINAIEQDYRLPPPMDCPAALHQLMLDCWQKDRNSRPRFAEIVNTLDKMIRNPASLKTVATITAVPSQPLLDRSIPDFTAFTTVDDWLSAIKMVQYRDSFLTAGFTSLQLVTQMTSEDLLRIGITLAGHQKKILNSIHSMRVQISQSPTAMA
Chain of PIK3CA (human) (P42336 whole entry, looked up): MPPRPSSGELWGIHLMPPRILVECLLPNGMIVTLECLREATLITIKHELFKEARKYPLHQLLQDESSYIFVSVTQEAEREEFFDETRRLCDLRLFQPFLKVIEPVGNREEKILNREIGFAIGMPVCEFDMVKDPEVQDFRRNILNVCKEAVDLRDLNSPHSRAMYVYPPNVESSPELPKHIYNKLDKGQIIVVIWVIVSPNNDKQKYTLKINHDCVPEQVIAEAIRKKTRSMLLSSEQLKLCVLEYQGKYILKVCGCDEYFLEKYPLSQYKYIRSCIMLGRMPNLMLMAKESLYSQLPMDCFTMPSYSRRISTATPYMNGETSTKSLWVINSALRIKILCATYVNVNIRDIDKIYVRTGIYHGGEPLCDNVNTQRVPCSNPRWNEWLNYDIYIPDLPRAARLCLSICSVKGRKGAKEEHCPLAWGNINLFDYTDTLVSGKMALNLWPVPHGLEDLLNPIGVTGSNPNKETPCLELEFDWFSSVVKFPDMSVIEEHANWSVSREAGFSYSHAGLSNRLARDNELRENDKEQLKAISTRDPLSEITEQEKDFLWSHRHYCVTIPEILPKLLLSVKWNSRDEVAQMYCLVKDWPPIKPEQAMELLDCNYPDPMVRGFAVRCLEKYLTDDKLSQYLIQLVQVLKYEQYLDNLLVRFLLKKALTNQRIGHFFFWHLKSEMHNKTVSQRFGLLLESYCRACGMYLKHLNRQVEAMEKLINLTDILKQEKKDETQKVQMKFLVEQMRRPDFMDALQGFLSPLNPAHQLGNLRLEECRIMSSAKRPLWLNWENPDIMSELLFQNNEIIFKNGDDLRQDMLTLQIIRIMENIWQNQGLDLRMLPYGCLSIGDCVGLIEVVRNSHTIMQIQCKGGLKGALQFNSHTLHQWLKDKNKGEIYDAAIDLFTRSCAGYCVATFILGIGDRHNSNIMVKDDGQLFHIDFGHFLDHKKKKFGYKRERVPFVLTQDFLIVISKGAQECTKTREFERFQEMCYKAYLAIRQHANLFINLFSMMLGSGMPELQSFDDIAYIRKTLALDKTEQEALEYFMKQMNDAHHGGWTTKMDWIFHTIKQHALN
Chain of CaMK1 (human) (Q14012 whole entry, looked up): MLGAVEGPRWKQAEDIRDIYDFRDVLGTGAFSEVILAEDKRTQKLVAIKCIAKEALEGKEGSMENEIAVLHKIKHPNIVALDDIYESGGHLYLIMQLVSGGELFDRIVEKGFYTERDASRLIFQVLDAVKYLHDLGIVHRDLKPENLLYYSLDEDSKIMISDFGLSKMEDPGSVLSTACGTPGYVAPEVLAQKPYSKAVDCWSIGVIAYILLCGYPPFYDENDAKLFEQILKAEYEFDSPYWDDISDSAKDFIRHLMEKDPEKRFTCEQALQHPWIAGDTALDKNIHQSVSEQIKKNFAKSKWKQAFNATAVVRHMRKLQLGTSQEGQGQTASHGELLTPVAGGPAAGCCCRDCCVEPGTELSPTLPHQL
Chain of PIK3CA (human), P42336 [I800L] (P42336 whole entry I800L, looked up): as the sequence (P42336 whole entry, looked up) above, with I800L counted along it

CNc1nc(Nc2ccc(C(=O)N3CCOCC3)cc2OC)ncc1Cl
kinase still bound, per cent of control [1]: 100% | kinase still bound, per cent of control [2]: 100% | kinase still bound, per cent of control [3]: 95% | kinase still bound, per cent of control [4]: 100% | kinase still bound, per cent of control [5]: 100% | kinase still bound, per cent of control [6]: 96% | kinase still bound, per cent of control [7]: 96% | kinase still bound, per cent of control [8]: 96% | kinase still bound, per cent of control [9]: 82% | kinase still bound, per cent of control [10]: 74% | kinase still bound, per cent of control [11]: 100% | kinase still bound, per cent of control [12]: 100% | kinase still bound, per cent of control [13]: 91% | kinase still bound, per cent of control [14]: 64% | kinase still bound, per cent of control [15]: 100% | kinase still bound, per cent of control [16]: 100% | kinase still bound, per cent of control [17]: 100% | kinase still bound, per cent of control [18]: 14% | kinase still bound, per cent of control [19]: 100% | kinase still bound, per cent of control [20]: 100% | kinase still bound, per cent of control [21]: 49% and 65% | kinase still bound, per cent of control [22]: 85% | kinase still bound, per cent of control [23]: 69% | kinase still bound, per cent of control [24]: 100% | kinase still bound, per cent of control [25]: 100% | kinase still bound, per cent of control [26]: 71% | kinase still bound, per cent of control [27]: 100% | kinase still bound, per cent of control [28]: 84% | kinase still bound, per cent of control [29]: 100% | kinase still bound, per cent of control [30]: 100% | kinase still bound, per cent of control [31]: 100% | kinase still bound, per cent of control [32]: 95% | kinase still bound, per cent of control [33]: 54% | kinase still bound, per cent of control [34]: 100% | kinase still bound, per cent of control [35]: 100% | kinase still bound, per cent of control [36]: 100% | kinase still bound, per cent of control [37]: 52% | kinase still bound, per cent of control [38]: 88% | kinase still bound, per cent of control [39]: 78%
